Columns and labels:
[1] = test system: Ang II-induced aortic fibrosis; assay: Ang II preventive model: aorta sections, picrosirius red; format: in vivo, mouse; settings: Ang II two weeks, oral treatment
Procedure: Ang II causes myocardial fibrosis in a short period of time (Sopel M et al., 2011, Lab. Invest., 91:565-578) characterized by collagen accumulation and after 14 days of Ang II infusion (Sigusch H H et al., 1996, Cardiovascular Research, 31:546-554). […] Subcutaneous infusion of Ang II using ALZET® osmotic pumps was used to study compound preventive effects. ALZET® osmotic minipumps (Model #2004, Charles Rives, Barcelona, Spain) delivering of Ang II (1.0 mg kg^− min^−) (Sigma-Aldrich, Madrid, Spain) for two weeks. Compound treatment was daily administered in parallel, one day before of the implantation of the subcutaneous pump, beneath the mid scapular loose skin and consisted of daily oral gavage of compound (20 mg/kg) or vehicle (Corn Oil/Maisine CC, 1/1). Mice were acclimated to manipulators for a week previously to the experiments in order to reduce stress and allow the detection of subtle changes in behavior by researchers. […] Neither piloerection nor hunched appearances were appreciated during the experimental procedures. […]
Mice treated with Ang II presented an increase in the thickness of aortic media layer by collagen accumulation. […] Three-four random fields of each heart were photographed by standard brightfield microscopy and digitalized using a Leica DFC420c camera and analyzed using Fiji software (rsb.info.nih.gov/ij/).

[2] = test system: Ang II-induced cardiac inflammation and fibrosis; assay: Immunohistochemistry of inflammatory and fibrotic markers (F4/80, TNC) in left ventricle, Ang II preventive model; format: in vivo, mouse; settings: 20 mg/kg oral, compared with Ang II untreated mice
Procedure: Macrophages accumulation are the hallmark of Ang II-induced fibrosis and play important roles during the inflammatory phase. Macrophage accumulation was identified by staining with a mAb that identifies F4/80^+ cells (FIG. 3). TNC is an ECM molecule that is expressed in response to injury in various tissues. Although not detectable in the normal adult heart, it was expressed under pathological conditions (FIG. 4).
Heart sections (Left ventricle) ([…]) were deparaffinized and boiled for 10 minutes in sodium citrate buffer (10 mM, pH 6.0) (Sigma-Aldrich, Madrid, Spain) for antigen retrieval. The sections were then incubated in a PBS washing buffer containing 0.1% Tween (Sigma-Aldrich, Madrid, Spain) three times for 10 minutes. The sections were incubated overnight at 4° C. with the following antibodies; for immunohistochemical detection of macrophages F4/80 antibody (1:50; MCA497, Bio-Rad) or with monoclonal anti-TNC (1:100 dilution, #MAB2138, RD system, Mineapolis, Minn., USA) were used for detection of this ECM protein. Slides were developed with diaminobenzidine chromogen (Agilent, Santa Clara, Calif., USA) and counterstained in Harris hematoxylin (Sigma-Aldrich, Madrid, Spain). Slides were photographed, digitalized using a Leica DFC420c camera and analyzed using Image J software.

[3] = test system: Ang II-induced dermal fibrosis; assay: Ang II-induced dermal fibrosis, preventive model, Sirius Red; format: in vivo, mouse; settings: Ang II 1.0 mg kg^- min^- two weeks, 20 mg/kg oral gavage
Procedure: The local renin angiotensin system exists in almost all organs, including skin. Ang II induces fibrosis in the skin via accumulation of activated fibroblasts. Dermal fibrosis was induced in mice by infusion of Ang II (1.0 mg kg^− min^−) for two weeks. The treatment with the compound of Formula (VIII) by oral gavage was the same as describe in Example 2. After two weeks of treatment, the mice were sacrificed under ether anesthesia. Skin samples were collected and fixed in 4% paraformaldehyde and embedded in paraffin. Skin sections (5 μm) were stained with Sirius Red for evaluation of fibrosis. Subcutaneous Ang II infusion induced a significant increase of collagen content and in the mice treated with compound, the induction of fibrosis in the skin is prevented (FIG. 11).

[4] = test system: Ang II-induced cardiac fibrosis; assay: Ang II therapeutic model: perivascular myocardial collagen deposition; format: in vivo, mouse; settings: Ang II 500 ng kg^- min^- 28 days, 20 mg/kg oral during last 14 days, ##p<0.01 versus Ang II group
Procedure: For the therapeutic model, infusion of Ang II for four weeks and the compound of Formula (VIII) (20 mg/kg) was administrated after two weeks of pump implantation. Subcutaneous infusion of Ang II using ALZET osmotic minipumps was used to study the preventive effects of the compound ALZET® osmotic minipumps (Model #2004, Charles Rives, Barcelona, Spain) delivering of Ang II (500 ng kg^−1 min^−1) (Sigma-Aldrich, Madrid, Spain) for four weeks. Compound treatment was daily administered in parallel, two weeks after the implantation of the subcutaneous pump, beneath the midscapular loose skin and consisted of daily oral gavage of compound of Formula (VIII) (20 mg/kg) or vehicle (Corn Oil/Maisine CC, 1/1). Mice were acclimated to manipulators for a week previously to the experiments in order to reduce stress and allow the detection of subtle changes in behavior by researchers. […] Neither piloerection nor hunched appearances were appreciated during the experimental procedures. Mice were sacrificed by cervical dislocation and the heart, aorta, kidney, and lung were removed and processed for histological examination or were frozen for further analysis.

NFAT = assay: Gal4-NFAT / Gal4-Luc reporter assay in hICF; format: cell-based, human; settings: hICF transfected with Gal4-Luc and Gal4-NFAT, stimulated 6 hours
Procedure: hICF cells were transiently transfected for 24 hours with the Gal4-Luc reporter plasmid (which includes five Gal4 DNA binding sites fused to the luciferase gene) and the Gal4-NFAT1-415plasmid for 24 hours using Roti-Fect (Carl Roth GmbH & Co. KG, Karlsruhe, Germany). Then cells were stimulated for 6 hours and luciferase activity in the cell lysates was measured. The specific transactivation expressed as a percentage of activation relative to control. Compound of Formula (VIII) inhibited Ang II-induced NFAT activation (FIG. 16B).

C=C(C)C1CCC(C)=C[C@H]1C1=C(O)C(=O)C(CCCCC)=C(NCc2ccccc2)C1=O (stereo partly drawn) [Formula (VIII)]
thickness of aortic media layer by collagen accumulation [1]: significantly alleviated | TNC marker in left ventricle (immunostaining) [2]: significantly reduced | infiltration of F4/80+ macrophages in myocardial tissue [2]: significantly reduced | induction of fibrosis in the skin (collagen content) [3]: prevented | Ang II perivascular myocardial collagen deposition [4]: reduced | Ang II-induced NFAT activation (luciferase) (NFAT): inhibited
